Reference: patent US20150133341A1, “Intra-Operative Cancer Diagnosis Based on a Hyperpolarized Marker” (ALBEDA INNOVATIONS APS, priority 2012, published 2015)
Counter-ions that a name gives are not always drawn. Like-named read-outs stand apart in the source and are kept apart here. Marks after values point to notes of the source that are not given here.

Key:
[1] = system: isolated CE-1 enzyme from porcine liver; assay: CE-1 activity on short chain esters, 1H NMR; type: biochemical; details: for k: 26 μmol substrate, conversion over 60 min; for faster converted than ethyl acetate: vs ethyl acetate
Text: To measure almost exclusively the contribution of carboxyl esterase activity from the CE-2 isoform, human breast cancer cells (MCF-7) were employed. These cells are known from literature to express CE-2 but not to express CE-1 (Byun et al, 2008, Cancer letters 266:238-48). A group of esters was investigated as substrates for CE-1, which contained different structural features. These consisted of esters of un-substituted acids (examples are ethyl acetate, ethyl butyrate, methyl butyrate), esters of acids substituted on C2 (examples are ethyl lactate and ethyl 2-acetoxy propanoate), esters of acids substituted on C3 (examples are ethyl 3-hydroxy butyrate and ethyl 3-acetoxy butanoate), esters of ring closed acids (example ethyl pyroglutamate), esters of di-acids (examples are diethyl succinate and dimethyl succinate), esters of tri-acids (example triethyl citrate), ethyl esters of beta-keto acids (example ethyl acetoacetate). Also esters with large alcohol groups and small acid groups were investigated. In this group, the acid part of the molecule was always acetate and different structural properties of the alcohol were investigated. These consisted of esters of un-substituted alcohols (examples ethyl acetate and butyl acetate), esters of branched chain alcohols (examples t-butyl acetate, ethyl 3-acetoxy butanoate and 2-acetoxy propionate), esters of aromatic alcohols (example benzyl acetate), esters of diols (example ethyleneglycol diacetate), esters of triols (example triacetin). […] Similarly, a group of esters which contained different structural features was investigated as substrates for CE-2. CE-2 substrates are described in the literature to consist of a small acid group and a larger alcohol group. All included esters were acetate esters (i.e. esters of acetic acid) in the interest of keeping the acid moiety the smallest possible. The acetate esters measured for CE-2 activity were therefore the same as those measured in the second group of possible substrates for CE-1.
The CE-1 experiments were performed with commercially available CE-1 from porcine liver. Individual samples of the substrates were all prepared the following way: 26 μmol was weighted in an eppendorf tube. 550 μl deuterated phosphate buffer (200 mM, pH 7.5) was added and the substrate was brought into solution by whirl mixing. The solution was transferred to a 5 mm NMR tube and inserted in the spectrometer at 37° C. A reference experiment was acquired on the substrate solution without enzyme after which 10 μl of an esterase stock solution (37 U/ml in deuterated phosphate buffer) was added in the top of the tube. The sample was mixed and returned to the spectrometer. A series of thermal 1D ^1H NMR experiments were recorded every 5 min for 60 min. The data were analysed with MNOVA software and measured as percentage conversion of substrate calculated to account for the amount of substrate converted over 60 min. The numbers are given in μmol/min.

[2] = system: carboxyl esterase in lysed breast cancer cells (MCF-7); assay: Carboxyl esterase activity in cell extract, 1H NMR; type: biochemical, human; details: for Metabolic conversion, Breast cancer cells MCF-7: 5 million lysed cells, 37° C.
Procedure: (§1) The hydrolysis of the substrates was investigated in cell extracts. To test substrates without isotope labelling for carboxyl esterase activity in a cellular background, a ^1H NMR assay was applied. Human breast cancer cells (MCF-7) and human prostate cancer cells (PC-3) were grown in RPMI medium with 10% FBS and antibiotics. They were at confluence harvested by trypsination and washed once with 5 ml PBS. They were spun down and resuspended in PBS to a concentration of 20 mill. cells/ml. The cells were hereafter sonicated on ice (50% amplitude, 1 min, 3 sec pulse). Human lymphocytes were purified from whole blood. Whole blood samples were drawn from healthy volunteer into heparinised venous blood collection tubes (Venosafe vacumtubes from Terumo). For each experiment, the blood was purified freshly: Three and a half 10 mL tubes of blood were pooled in each of four 50 mL Leucosep (Greiner) tubes prepared with 15 mL Histopaque 1077 (Sigma). The Leucosep tubes were spun for 15 min at 800× g at 24 C. The plasma was removed and the white blood cells were transferred to a 50 mL falcon tube by decanting and diluted 1:2 in PBS-Mg—Ca for a total volume of 50 mL. The cells were sedimented by centrifugation at 250×g for 60 min. Diluting with trypan blue and counting in hemocytometer determined the total number of lymphocytes before sedimentation. All cells were viable and the total number of cells in each cell batch was approx. 60 million. The lymphocytes were redissolved to a concentration of 20 million cells/ml. The cells were hereafter sonicated on ice (50% amplitude, 1 min, 3 sec pulse).
(§2) 250 μl sonicated cell suspension was mixed with 250 μl 400 mM phosphate buffer pH 7.3. This solution was transferred to a 5 mm NMR tube and warmed on a water bath to 37° C. The substrate was added (50 μl, 60 mM) and the tube turned for mixing before it was inserted into the spectrometer. The data was analyzed with MNOVA software and measured as percentage conversion of substrate calculated to account for the amount of substrate converted over 60 min; numbers are given in μmol/hour.

[3] = system: carboxyl esterase in lysed lymphocytes (B + T cells); assay: Carboxyl esterase activity in cell extract, 1H NMR; type: biochemical, human; details: 5 million lysed cells, 37° C.
Procedure: as §1, §2

[4] = system: carboxyl esterase in lysed prostate cancer cells (PC-3); assay: Carboxyl esterase activity in cell extract, 1H NMR; type: biochemical, human; details: for Metabolic conversion, Prostate cancer cells PC-3: 5 million lysed cells, 37° C.
Procedure: as §1, §2

[5] = target: T1, CE-2 in lysed human breast cancer cells (MCF-7) (Homo sapiens, UniProt O00748); assay: CE-2 activity on acetate esters in lysed MCF-7 cells, 1H NMR; type: biochemical; details: for hydrolysis by CE-2, in words: lysed MCF-7 cells; for k: 5 million lysed MCF-7 cells, 37° C., 1 hour
T1 construct: endogenous in cells; host or cells: MCF-7 (sonicated lysate)
T1 sequence (O00748 27-559): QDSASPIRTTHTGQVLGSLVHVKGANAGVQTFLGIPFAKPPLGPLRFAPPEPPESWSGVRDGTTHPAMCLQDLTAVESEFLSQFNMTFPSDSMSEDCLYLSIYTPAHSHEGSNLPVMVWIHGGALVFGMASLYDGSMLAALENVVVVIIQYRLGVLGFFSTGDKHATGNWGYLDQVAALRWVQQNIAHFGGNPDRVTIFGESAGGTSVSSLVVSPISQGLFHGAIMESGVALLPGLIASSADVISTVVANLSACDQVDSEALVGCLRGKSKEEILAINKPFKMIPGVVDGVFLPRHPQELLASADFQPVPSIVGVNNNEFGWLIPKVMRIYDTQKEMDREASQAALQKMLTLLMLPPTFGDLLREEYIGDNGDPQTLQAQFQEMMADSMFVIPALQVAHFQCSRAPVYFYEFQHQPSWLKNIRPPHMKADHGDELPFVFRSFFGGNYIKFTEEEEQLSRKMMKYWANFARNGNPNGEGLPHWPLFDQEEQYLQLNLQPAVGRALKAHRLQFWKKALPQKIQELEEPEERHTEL
Procedure: Different classes of short chain esters, fulfilling the requirements for the hyperpolarization technique (stable, soluble, low molecular weight compounds (<400 Da), were evaluated as substrates for carboxyl esterases with the aim to identify esters as similar or better substrates for carboxyl esterases than 1,3-^13C2 ethyl acetoacetate. In most human cell types, including a wide range of cancer cells and lymphocytes, the activity of carboxyl esterase is dominated by the activities of isoforms 1 and 2 (CE-1 and CE-2). To measure exclusively the hydrolysis of carboxyl esterase from the CE-1 isoform, an isolated enzyme from porcine liver was applied. To measure almost exclusively the contribution of carboxyl esterase activity from the CE-2 isoform, human breast cancer cells (MCF-7) were employed. These cells are known from literature to express CE-2 but not to express CE-1 (Byun et al, 2008, Cancer letters 266:238-48). A group of esters was investigated as substrates for CE-1, which contained different structural features. […] Also esters with large alcohol groups and small acid groups were investigated. In this group, the acid part of the molecule was always acetate and different structural properties of the alcohol were investigated. These consisted of esters of un-substituted alcohols (examples ethyl acetate and butyl acetate), esters of branched chain alcohols (examples t-butyl acetate, ethyl 3-acetoxy butanoate and 2-acetoxy propionate), esters of aromatic alcohols (example benzyl acetate), esters of diols (example ethyleneglycol diacetate), esters of triols (example triacetin). Esters of alpha-keto acids were too unstable to be investigated in this assay. Esters of larger alcohols are not water soluble and therefore not relevant substrates for the purpose of the invention. Similarly, a group of esters which contained different structural features was investigated as substrates for CE-2. CE-2 substrates are described in the literature to consist of a small acid group and a larger alcohol group. All included esters were acetate esters (i.e. esters of acetic acid) in the interest of keeping the acid moiety the smallest possible. The acetate esters measured for CE-2 activity were therefore the same as those measured in the second group of possible substrates for CE-1. The CE-2 experiments were performed with lysed breast cancer cells (MCF-7). MCF-7 cells were grown in RPMI medium with 10% FBS and antibiotics. They were at confluence harvested by trypsination and washed once with 5 ml PBS. They were spun down and resuspended in PBS to a concentration of 20 mill. cells/ml. The cells were hereafter sonicated on ice (50% amplitude, 1 min, 3 sec pulse). 250 μl sonicated cell suspension was mixed with 250 μl 400 mM phosphate buffer pH 7.3. […] The substrate was added (50 μl, 60 mM) and the tube turned for mixing before it was inserted into the spectrometer. An initial spectrum was acquired and the sample was hereafter placed at 37° C. for 1 hour in a water bath. The sample was again inserted into the magnet and a second spectrum was recorded. The data was analysed with MNOVA software and measured as percentage conversion of substrate calculated to account for the amount of substrate converted over 60 min. The numbers are given in μmol/hour.

Q: Which results are given for `COC(=O)CCC(=O)OC` [Dimethyl succinate]?
A: k ([1]; 37° C.): 0.41 µmol/min; faster converted than ethyl acetate [1]: more than ten times faster converted

Q: Which results are given for `CCOC(=O)CC(O)(CC(=O)OCC)C(=O)OCC` [Triethyl citrate]?
A: conversion by CE-1, in words [1]: only hydrolyzed to a very low extent; k ([1]; 37° C.): 0 µmol/min; conversion by CE-1, in words ([1]; listed as triethyl citrate): no hydrolysis could be detected

Q: For `CCOC(=O)C(C)O` (stereo not shown) [Ethyl lactate], which “k” value ([1]; 37° C.) is on record?
A: Its value is 0.11 µmol/min.

Q: `CCOC(=O)CC(C)=O` [Ethyl acetoacetate] was tested. Which “Metabolic conversion, Breast cancer cells MCF-7” value [2] did it give?
A: The value was 0* umol/hour.

Q: What about the “contrast in breast cancer cells relative to lymphocytes, in words” value ([2]; cell number basis, FIG. 9A) of the same compound?
A: The value was “highest contrast”.

Q: What about the “Metabolic conversion, Lymphocytes (B + T cells)” value [3] of the same compound?
A: The value was 0.15 µmol/h.

Q: And the “Metabolic conversion, Prostate cancer cells PC-3” value [4]?
A: Its value is 0* umol/hour.

Q: And the “contrast in prostate cancer cells relative to lymphocytes, in words” value ([4]; cell number basis, FIG. 9B)?
A: The value was “highest negative contrast”.

Q: What about the “k” value ([1]; 37° C.) of the same compound?
A: Its value is 0.12 µmol/min.

Q: With `CCOC(=O)C(C)OC(C)=O` (stereo not shown) [ethyl 2-acetoxy propanoate] as the compound, how does the “hydrolysis by CE-2, in words” value [5] read?
A: Its value is “hydrolysed to a similar extent”.

Q: What about the “k (μmol/min), acetate ester” value ([1]; hydrolysis of the acetate ester function, 37° C., 60 min) of the same compound?
A: The value was 0 µmol/min.

Q: What about the “k (μmol/min), ethyl ester” value ([1]; hydrolysis of the ethyl ester function, 37° C., 60 min) of the same compound?
A: The value was 0.16 µmol/min.

Q: What does the source list for `CC(=O)OCCOC(C)=O` [Ethyleneglycol diacetate]?
A: k [5]: 0.18 µmol/min; k ([1]; 37° C.): 0.07 µmol/min

Q: How did the “conversion by CE-1, in words” value [1] turn out when `CCOC(=O)[C@@H]1CCC(=O)N1` [Ethyl pyroglutamate] was run?
A: The value was “only hydrolyzed to a very low extent”.

Q: And the “k” value ([1]; 37° C.)?
A: Its value is 0.02 µmol/min.

Q: And the “conversion by CE-1, in words” value ([1]; listed as ethyl ester of pyroglutamate)?
A: The value was “barely detectable”.

Q: What does the source list for `CCOC(C)=O` [Ethylacetate]?
A: k [5]: 0 µmol/min; hydrolysis by CE-2, in words [5]: not hydrolysed; conversion by CE-1, in words [1]: not a good substrate; k ([1]; 37° C.): 0.03 µmol/min

Q: Which “k” value ([1]; 37° C.) does the source give for `CCCC(=O)OCC` [Ethylbutyrate] here?
A: The value was 0.12 µmol/min.

Q: Which results are given for `CCCC(=O)OC` [Methylbutyrate]?
A: Metabolic conversion, Breast cancer cells MCF-7 [2]: 0.42 µmol/h; Metabolic conversion, Lymphocytes (B + T cells) [3]: 0.90 µmol/h; Metabolic conversion, Prostate cancer cells PC-3 [4]: 0.51 µmol/h; k ([1]; 37° C.): 0.22 µmol/min

Q: With `CCOC(=O)CCC(=O)OCC` [Diethyl succinate] as the compound, how does the “Metabolic conversion, Breast cancer cells MCF-7” value [2] read?
A: Its value is 0.12 µmol/h.

Q: And the “negative contrast, lower than that of EAA” value ([2]; breast cancer cells relative to lymphocytes, cell number basis)?
A: Its value is “approx. 3 times”.

Q: What about the “Metabolic conversion, Lymphocytes (B + T cells)” value [3] of the same compound?
A: The value was 0.60 µmol/h.

Q: And the “Metabolic conversion, Prostate cancer cells PC-3” value [4]?
A: Its value is 0.48 µmol/h.

Q: And the “k” value ([1]; 37° C.)?
A: Its value is 0.48 µmol/min.

Q: And the “faster converted than ethyl acetate” value [1]?
A: The value was “more than ten times faster converted”.

Q: How did the “k” value [5] turn out when `CCCCOC(C)=O` [Butyl acetate] was run?
A: The value was 0.24 µmol/min.

Q: What about the “hydrolysis by CE-2, in words” value [5] of the same compound?
A: The value was “hydrolysed to a similar extent”.

Q: What about the “k” value ([1]; 37° C.) of the same compound?
A: Its value is 0.04 µmol/min.

Q: `CCOC(=O)CC(C)O` (stereo not shown) [Ethyl 3-Hydroxybutyrate] was tested. Which “k” value ([1]; 37° C.) did it give?
A: Its value is 0.08 µmol/min.

Q: For `CC(=O)OC(C)(C)C` [Tert-butyl acetate], which “k” value ([1]; 37° C.) is on record?
A: Its value is 0 µmol/min.
